One block for each molecule: values may come before it.
How the values were obtained:
Histone deacetylase 1 [1] = biological target: T1, Histone deacetylase 1 (Homo sapiens, UniProt Q13547); assay: Inhibition of recombinant human HDAC1 expressed in baculovirus infected Hi-5 insect cells using Ac-Lys-Tyr-Lys (epsilon-acetyl)-AMC as substrate incubated for 3 to 24 hrs by fluorescence based plate reader analysis
Histone deacetylase 2 [2] = biological target: T2, Histone deacetylase 2 (Homo sapiens, UniProt Q92769); assay: Inhibition of recombinant human HDAC2 expressed in baculovirus infected Hi-5 insect cells using Ac-Lys-Tyr-Lys (epsilon-acetyl)-AMC as substrate incubated for 3 to 24 hrs by fluorescence based plate reader analysis
T2 sequence (Q92769 whole entry): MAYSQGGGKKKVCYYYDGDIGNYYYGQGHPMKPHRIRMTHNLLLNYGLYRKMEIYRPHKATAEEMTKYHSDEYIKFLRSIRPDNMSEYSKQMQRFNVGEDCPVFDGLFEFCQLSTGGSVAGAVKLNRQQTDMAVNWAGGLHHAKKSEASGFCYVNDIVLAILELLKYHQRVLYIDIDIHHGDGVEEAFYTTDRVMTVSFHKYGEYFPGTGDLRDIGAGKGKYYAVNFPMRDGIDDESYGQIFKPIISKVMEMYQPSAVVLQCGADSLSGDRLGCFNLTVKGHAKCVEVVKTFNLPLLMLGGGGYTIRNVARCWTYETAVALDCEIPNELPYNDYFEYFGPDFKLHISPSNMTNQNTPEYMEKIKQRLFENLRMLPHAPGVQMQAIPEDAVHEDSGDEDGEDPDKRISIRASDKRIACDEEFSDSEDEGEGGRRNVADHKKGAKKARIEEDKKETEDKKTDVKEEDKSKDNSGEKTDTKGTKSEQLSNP

Histone deacetylase 3 = Histone deacetylase 3 (Homo sapiens, UniProt O15379); assay: Inhibition of recombinant human HDAC3 expressed in baculovirus infected Hi-5 insect cells using Ac-Lys-Tyr-Lys (epsilon-acetyl)-AMC as substrate incubated for 3 to 24 hrs by fluorescence based plate reader analysis
Sequence of Histone deacetylase 3 (O15379 whole entry): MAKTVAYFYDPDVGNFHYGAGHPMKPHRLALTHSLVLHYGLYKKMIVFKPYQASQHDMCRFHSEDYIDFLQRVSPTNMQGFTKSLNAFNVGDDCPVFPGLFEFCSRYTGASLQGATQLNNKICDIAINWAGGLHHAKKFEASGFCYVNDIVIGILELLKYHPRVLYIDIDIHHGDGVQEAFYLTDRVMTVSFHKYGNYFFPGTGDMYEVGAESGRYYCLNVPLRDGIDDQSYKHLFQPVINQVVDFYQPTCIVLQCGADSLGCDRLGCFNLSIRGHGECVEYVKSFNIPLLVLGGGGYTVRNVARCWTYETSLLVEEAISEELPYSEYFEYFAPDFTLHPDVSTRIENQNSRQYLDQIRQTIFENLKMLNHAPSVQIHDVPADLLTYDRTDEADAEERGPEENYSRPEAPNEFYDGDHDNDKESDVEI

HCT-116 = assay: Cytotoxicity against human HCT-116 cells assessed as inhibition of cell proliferation incubated for 72 hrs by MTT assay; assay type: functional, cell-based; settings: HCT-116, 72 h
A549 [3] = assay: Cytotoxicity against human A549 cells assessed as inhibition of cell proliferation incubated for 72 hrs by MTT assay; assay type: functional, cell-based; settings: A549, 72 h
[4] = biological target: Protein kinase C alpha type (Mus musculus, UniProt P20444); assay: Binding affinity to mouse PKC-alpha assessed as inhibition constant
Histone deacetylase 1 [5] = biological target: T1, Histone deacetylase 1; assay: Inhibition of HDAC1 (unknown origin)
[6] = biological target: T3, Protein deacetylase HDAC6 (Homo sapiens, UniProt Q9UBN7); assay: Inhibition of HDAC6 (unknown origin)
T3 sequence (Q9UBN7 whole entry): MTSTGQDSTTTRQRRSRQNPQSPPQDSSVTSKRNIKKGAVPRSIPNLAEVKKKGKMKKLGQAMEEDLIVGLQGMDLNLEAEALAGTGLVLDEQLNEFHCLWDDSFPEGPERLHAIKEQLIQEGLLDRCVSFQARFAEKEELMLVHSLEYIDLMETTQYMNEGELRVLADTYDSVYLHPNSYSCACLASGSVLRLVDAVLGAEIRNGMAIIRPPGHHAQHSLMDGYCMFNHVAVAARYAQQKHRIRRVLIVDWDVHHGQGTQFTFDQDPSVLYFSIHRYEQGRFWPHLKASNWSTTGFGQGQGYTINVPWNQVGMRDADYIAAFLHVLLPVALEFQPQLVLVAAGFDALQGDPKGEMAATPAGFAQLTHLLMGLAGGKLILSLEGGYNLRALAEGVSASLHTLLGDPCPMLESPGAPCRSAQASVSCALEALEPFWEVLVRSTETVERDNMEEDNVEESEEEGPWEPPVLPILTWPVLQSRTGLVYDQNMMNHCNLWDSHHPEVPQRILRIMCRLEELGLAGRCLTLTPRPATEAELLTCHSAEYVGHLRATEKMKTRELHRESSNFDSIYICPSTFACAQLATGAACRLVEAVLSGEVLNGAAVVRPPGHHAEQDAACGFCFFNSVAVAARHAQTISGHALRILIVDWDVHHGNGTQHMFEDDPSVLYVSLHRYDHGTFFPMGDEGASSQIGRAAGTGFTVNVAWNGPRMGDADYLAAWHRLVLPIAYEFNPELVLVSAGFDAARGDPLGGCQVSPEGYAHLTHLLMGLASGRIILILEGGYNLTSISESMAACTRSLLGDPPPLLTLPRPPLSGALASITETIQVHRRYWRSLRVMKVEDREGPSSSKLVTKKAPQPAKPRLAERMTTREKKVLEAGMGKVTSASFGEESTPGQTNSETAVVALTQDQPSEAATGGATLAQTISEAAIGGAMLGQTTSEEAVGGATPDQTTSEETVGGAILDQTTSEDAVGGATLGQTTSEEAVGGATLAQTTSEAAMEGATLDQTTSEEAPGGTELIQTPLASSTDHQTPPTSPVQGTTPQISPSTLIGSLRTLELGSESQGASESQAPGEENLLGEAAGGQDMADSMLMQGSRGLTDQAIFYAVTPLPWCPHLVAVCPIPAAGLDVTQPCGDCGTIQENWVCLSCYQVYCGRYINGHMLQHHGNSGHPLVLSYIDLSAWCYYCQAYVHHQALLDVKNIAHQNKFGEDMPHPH

Histone deacetylase 8 = biological target: T4, Histone deacetylase 8 (Homo sapiens, UniProt Q9BY41); assay: Inhibition of HDAC8 (unknown origin)
T4 sequence (Q9BY41 whole entry): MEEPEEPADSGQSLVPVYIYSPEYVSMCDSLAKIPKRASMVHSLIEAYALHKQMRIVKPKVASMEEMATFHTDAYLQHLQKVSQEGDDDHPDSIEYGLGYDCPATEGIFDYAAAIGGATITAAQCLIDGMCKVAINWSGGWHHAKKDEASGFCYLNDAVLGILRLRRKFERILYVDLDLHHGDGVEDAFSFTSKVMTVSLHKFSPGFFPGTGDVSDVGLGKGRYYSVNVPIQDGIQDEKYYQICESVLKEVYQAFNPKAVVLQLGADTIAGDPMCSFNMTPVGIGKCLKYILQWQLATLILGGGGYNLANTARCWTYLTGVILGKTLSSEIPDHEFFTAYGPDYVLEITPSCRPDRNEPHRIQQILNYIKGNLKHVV

DU-145 [7] = assay: Cytotoxicity against human DU-145 cells assessed as cell growth inhibition; assay type: functional, cell-based
Histone deacetylase 1 [8] = biological target: T1, Histone deacetylase 1; assay: Inhibition of full-length recombinant human HDAC1 expressed in baculovirus infected Hi-5 insect cells using AcLys-Tyr-Lys(e-acetyl)-AMC as substrate incubated for 24 hrs by enzymatic assay
K562 = assay: Antiproliferative activity against human K562 cells assessed as cell growth inhibition incubated for 48 hrs by MTT assay; assay type: functional, cell-based; settings: K562, 48 h
HepG2 = assay: Antiproliferative activity against human HepG2 cells assessed as cell growth inhibition incubated for 48 hrs by MTT assay; assay type: functional, cell-based; settings: HepG2, 48 h
DU-145 [9] = assay: Antiproliferative activity against human DU-145 cells assessed as cell growth inhibition incubated for 48 hrs by MTT assay; assay type: functional, cell-based; settings: DU-145, 48 h
A549 [10] = assay: Anti-proliferative activity against human A549 cells assessed as cell growth inhibition by MTT assay; assay type: functional, cell-based
[11] = biological target: T5, cGMP-specific 3',5'-cyclic phosphodiesterase (Homo sapiens, UniProt O76074); assay: Inhibition of PDE5A (unknown origin)
Histone deacetylase 2 [12] = biological target: T2, Histone deacetylase 2; assay: Inhibition of HDAC2 (unknown origin)
[13] = biological target: Phosphatidylinositol 4,5-bisphosphate 3-kinase catalytic subunit alpha isoform (Homo sapiens, UniProt P42336); assay: Inhibition of PI3K-alpha (unknown origin)
Sequence of Phosphatidylinositol 4,5-bisphosphate 3-kinase catalytic subunit alpha isoform (P42336 whole entry, canonical isoform): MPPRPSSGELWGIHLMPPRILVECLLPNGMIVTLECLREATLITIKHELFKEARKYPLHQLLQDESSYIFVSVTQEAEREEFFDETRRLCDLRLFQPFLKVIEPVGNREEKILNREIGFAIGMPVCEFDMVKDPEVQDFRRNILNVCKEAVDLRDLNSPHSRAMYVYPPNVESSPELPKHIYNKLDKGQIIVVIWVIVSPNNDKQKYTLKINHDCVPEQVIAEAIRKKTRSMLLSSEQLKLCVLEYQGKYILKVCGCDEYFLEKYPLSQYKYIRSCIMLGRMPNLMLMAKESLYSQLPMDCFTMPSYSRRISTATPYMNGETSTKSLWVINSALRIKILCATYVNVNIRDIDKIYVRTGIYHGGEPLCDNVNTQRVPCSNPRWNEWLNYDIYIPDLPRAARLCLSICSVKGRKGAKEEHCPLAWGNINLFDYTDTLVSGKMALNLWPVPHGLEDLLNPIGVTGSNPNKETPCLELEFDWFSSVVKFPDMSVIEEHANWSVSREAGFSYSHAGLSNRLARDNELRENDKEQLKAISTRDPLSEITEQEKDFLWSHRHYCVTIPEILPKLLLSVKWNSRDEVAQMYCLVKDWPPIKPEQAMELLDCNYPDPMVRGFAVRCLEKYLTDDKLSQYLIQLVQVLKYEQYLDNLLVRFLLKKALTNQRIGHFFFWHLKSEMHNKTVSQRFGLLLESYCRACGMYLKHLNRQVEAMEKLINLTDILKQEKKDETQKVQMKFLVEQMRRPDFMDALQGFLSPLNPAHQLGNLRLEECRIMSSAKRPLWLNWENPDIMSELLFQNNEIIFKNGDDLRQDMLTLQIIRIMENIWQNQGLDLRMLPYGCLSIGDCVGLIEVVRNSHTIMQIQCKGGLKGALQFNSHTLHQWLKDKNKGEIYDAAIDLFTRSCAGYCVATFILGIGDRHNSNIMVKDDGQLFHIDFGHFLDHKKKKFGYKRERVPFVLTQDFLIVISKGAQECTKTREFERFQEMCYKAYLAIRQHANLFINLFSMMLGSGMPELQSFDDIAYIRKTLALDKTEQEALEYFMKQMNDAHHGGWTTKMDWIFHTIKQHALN

SMMC-7721 = assay: cells; assay type: functional, cell-based; settings: Homo sapiens, SMMC-7721, 48 h
[14] = biological target: T6, High affinity cGMP-specific 3',5'-cyclic phosphodiesterase 9A (Homo sapiens, UniProt O76083); assay: Inhibition of PDE9 (unknown origin)
T6 sequence (O76083 whole entry): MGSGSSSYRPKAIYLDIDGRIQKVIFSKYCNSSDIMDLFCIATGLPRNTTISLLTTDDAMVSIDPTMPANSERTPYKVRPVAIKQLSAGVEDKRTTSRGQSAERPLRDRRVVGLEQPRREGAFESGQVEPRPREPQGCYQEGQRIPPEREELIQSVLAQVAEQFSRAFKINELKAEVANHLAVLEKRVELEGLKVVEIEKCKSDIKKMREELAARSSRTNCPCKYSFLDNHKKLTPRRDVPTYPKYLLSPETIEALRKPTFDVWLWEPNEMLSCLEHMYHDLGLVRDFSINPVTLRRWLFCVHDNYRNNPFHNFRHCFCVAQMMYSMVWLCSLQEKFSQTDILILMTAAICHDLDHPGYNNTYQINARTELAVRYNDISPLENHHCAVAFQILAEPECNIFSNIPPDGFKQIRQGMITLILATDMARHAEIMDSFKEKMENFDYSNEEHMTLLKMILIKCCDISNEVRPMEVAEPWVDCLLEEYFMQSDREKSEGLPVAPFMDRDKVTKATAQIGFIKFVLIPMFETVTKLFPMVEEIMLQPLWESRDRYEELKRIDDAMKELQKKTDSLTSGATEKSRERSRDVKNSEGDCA

[15] = Inhibition of PDE5 (unknown origin); set-up: species or system Homo sapiens
[16] = biological target: T6, High affinity cGMP-specific 3',5'-cyclic phosphodiesterase 9A; assay: Inhibition of N-terminal GST-tagged full-length human PDE9A2 expressed in baculovirus infected Sf9 insect cells using cGMP as substrate incubated for 30 mins by HTRF assay
[17] = biological target: T5, cGMP-specific 3',5'-cyclic phosphodiesterase; assay: Inhibition of N-terminal GST-tagged full-length recombinant human PDE5A1 (1 to 875 residues) expressed in Sf9 insect cells using cGMP as substrate incubated for 30 mins by HTRF assay
Histone deacetylase 1 [18] = biological target: T1, Histone deacetylase 1; assay: Inhibition of C-terminal 6xHis/FLAG-tagged full-length recombinant human HDAC1 (1 to 482 residues) expressed in Sf9 insect cells using fluorogenic substrate incubated for 30 mins by fluorescence based plate reader analysis
[19] = biological target: T3, Protein deacetylase HDAC6; assay: Inhibition of full-length recombinant human HDAC6 (1 to 1215 residues) expressed in Sf9 insect cells using fluorogenic substrate incubated for 30 mins by fluorescence based plate reader analysis

T1 sequence (Q13547 whole entry): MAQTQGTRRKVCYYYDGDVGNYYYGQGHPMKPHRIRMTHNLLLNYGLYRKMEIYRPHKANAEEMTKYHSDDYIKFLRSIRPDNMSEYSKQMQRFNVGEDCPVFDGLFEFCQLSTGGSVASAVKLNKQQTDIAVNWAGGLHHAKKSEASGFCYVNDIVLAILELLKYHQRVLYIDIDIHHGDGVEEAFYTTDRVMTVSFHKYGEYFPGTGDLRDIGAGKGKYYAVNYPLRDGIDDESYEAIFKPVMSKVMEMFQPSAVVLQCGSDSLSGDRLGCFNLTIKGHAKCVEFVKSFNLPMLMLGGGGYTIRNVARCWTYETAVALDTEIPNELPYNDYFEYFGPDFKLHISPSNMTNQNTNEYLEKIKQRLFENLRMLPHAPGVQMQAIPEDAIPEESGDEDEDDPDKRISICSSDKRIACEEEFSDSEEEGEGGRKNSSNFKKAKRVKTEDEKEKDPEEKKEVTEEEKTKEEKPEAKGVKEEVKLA

SMILES: COc1cc([C@@H]2c3cc4c(cc3C[C@H]3COC(=O)[C@@H]32)OCO4)cc(OC)c1OC(=O)CC(=O)NCc1ccc(C(=O)Nc2ccccc2N)cc1
IC50 (Histone deacetylase 1 [1]): 11100 nM | IC50 (Histone deacetylase 2 [2]): 1730 nM | IC50 (Histone deacetylase 3): 1000 nM | IC50 (HCT-116): 37 nM | IC50 (A549 [3]): 36 nM

SMILES: CCN1CCN(c2cc(Nc3ncc(C(=O)Nc4ccc(F)cc4N)s3)ncn2)CC1
IC50 (Histone deacetylase 1 [8]): 810 nM | IC50 (K562): 2260 nM | IC50 (HepG2): 10400 nM | IC50 (DU-145 [9]): 600 nM

SMILES: O=C(CCCCCOc1ccc(-c2nc3ccccc3c3cc(-c4ccccc4)nn23)cc1)NO
IC50 (A549 [10]): 720 nM

SMILES: O=C(NO)c1ccc(/C=N/NC(=O)c2cc(N3CCOCC3)nc(-c3cccc(O)c3)n2)cc1
IC50 [6]: 15.3 nM | IC50 [13]: 46.3 nM

SMILES: CC(C)=CCC/C(C)=C/CC/C(C)=C/CSc1ccccc1C(=O)O [SALIRASIB]
IC50 (SMMC-7721): 6700 nM

SMILES: C[C@@H](c1nc2c(cnn2C2CCCC2)c(=O)[nH]1)N1CC(Cc2ccc(C(=O)Nc3ccccc3N)cc2)C1
IC50 (Histone deacetylase 1 [5]): 99 nM | IC50 (Histone deacetylase 2 [12]): 545 nM | IC50 [6]: > 10000 nM | IC50 [14]: 57 nM | IC50 [15]: > 10000 nM

The next lines start with results.

Ki [4]: 8.7 nM
SMILES: CC(=O)SCCCCCCOc1ccc2c(c1)N(C)[C@@H](C(C)C)C(=O)N[C@H](CO)C2

IC50 (Histone deacetylase 1 [5]): 47 nM | IC50 [6]: 20 nM | IC50 (Histone deacetylase 8): 220 nM
SMILES: COc1cccc2c1C(=O)c1c(O)c3c(c(O)c1C2=O)C[C@@](O)(C(C)=O)C[C@@H]3O[C@H]1C[C@H](N)[C@H](O)[C@H](C)O1 [DAUNORUBICIN]
IC50 (DU-145 [7]): 130 nM

IC50 [11]: 114 nM | IC50 (Histone deacetylase 1 [5]): 673 nM | IC50 (Histone deacetylase 2 [12]): > 20000 nM | IC50 [6]: > 20000 nM
SMILES: CCCc1nn(C)c2c(=O)[nH]c(-c3cc(Cc4ccc(C(=O)Nc5ccccc5N)cc4)ccc3OCC)nc12

IC50 [6]: 34.6 nM | IC50 [13]: 8.34 nM
SMILES: O=C(NO)c1ccc(/C=N/NC(=O)c2cc(N3CCOCC3)nc(-c3cccc4[nH]ncc34)n2)cc1

IC50 (Histone deacetylase 1 [5]): 138 nM | IC50 (Histone deacetylase 2 [12]): 1250 nM | IC50 [6]: 508 nM | IC50 [14]: 8 nM | IC50 [15]: > 10000 nM
SMILES: C[C@H]1CN(Cc2ccc(/C=C/C(=O)NO)cc2)C[C@@H]1c1nc2c(cnn2C2CCOCC2)c(=O)[nH]1

IC50 [16]: > 10000 nM | IC50 [17]: 60 nM | IC50 (Histone deacetylase 1 [18]): 310 nM | IC50 [19]: 81 nM
SMILES: CCCc1nn(C)c2c(=O)[nH]c(-c3cc(CC4CC(C(=O)NO)C4)ccc3OCC)nc12 (stereo not drawn)
